Measurements taken from patent publication US20110065675A1, “AZO DYE RELATED SMALL MOLECULE MODULATORS OF PROTEIN-PROTEIN INTERACTIONS” (University of Miami, priority 2008, published 2011).
Read-outs that look alike come from different tables or passages of the source.

What was measured:
human CD40/CD154 = target: T1, human CD40/CD154 (Homo sapiens, UniProt P29965); experiment: Human CD40/CD154 binding inhibition assay (cell-free, plate-based); details: for Human CD40/CD154 IC50 / IC50: cell-free binding; for Human CD40/CD154 log IC50: log of IC50, cell-free binding
T1 construct: CD154 (soluble human, FLAG-tagged, recombinant from Alexis Biochemicals; MW=18 kDa); purchased Alexis Biochemicals
T1 sequence (P29965 113-261 limits assumed): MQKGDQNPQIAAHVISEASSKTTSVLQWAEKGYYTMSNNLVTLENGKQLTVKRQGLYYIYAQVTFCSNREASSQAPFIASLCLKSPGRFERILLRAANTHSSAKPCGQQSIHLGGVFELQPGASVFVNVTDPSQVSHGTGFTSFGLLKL
Method: A 96-well plate-based cell-free in vitro binding inhibition assay, which is a modification of an assay described in U.S. Pat. No. 7,173,046, incorporated by reference in its entirety, has been developed and used for activity screening. Briefly, CD40 is coated at a preselected concentration, and binding of (FLAG-tagged) CD154 is measured by reacting with secondary antibody and using TMB liquid substrate system as a substrate for horseradish peroxidase for reading at 450 nm. The detailed procedure is as follows: Microtiter plates (Nunc F MaxiSorp) were coated with […] of CD40: Fc (human:Fc human, recombinant from Alexis Biochemicals; MW=54 kDa) diluted in PBS pH 7.2 at a preselected concentration of 0.3125 μg/mL. Plates were covered with plate sealer and stored overnight at 4° C. The liquid was removed from the plates and blotted dry. Plates were blocked by washing once with approx. 300 μL/well of Blocking Solution (PBS pH 7.2, 0.05% Tween-20, 1% BSA) and incubated with the same solution for 1 hour at room temperature (RT) or at 4° C. overnight. Coated plates were washed three times with Washing Solution (PBS pH 7.4, 0.05% Tween-20) and blotted dry. A preselected dilution of CD154 (soluble human, FLAG-tagged, recombinant from Alexis Biochemicals; MW=18 kDa) of 0.0087500875 μg/mL range was prepared in 100 mM HEPES, 0.005% BSA pH 7.2. Binding was carried out by adding 100 μL of this CD154 dilution/well and incubating at RT in the presence of test compounds (or blank as negative control). After incubation, the plates were washed with Washing Solution and blotted dry. Bound CD154 was detected with 200 μL/well of secondary antibody mAb ANTI-FLAG M2—Peroxidase Conjugate (anti-FLAG M2-peroxidase HRP conjugate; Sigma-Aldrich) diluted 1:40,000 in Washing Solution. After incubation, the plates were washed and blotted dry. 200 μL/well of the HR-Peroxidase substrate TMB (3,3′,5,5′-tetramethylbenzidine; Sigma-Aldrich) were added, and the plates were incubated for approximately 30 minutes in the dark. The reaction was stopped with 0.5 M H2SO4 and read at 450 nm. All conditions were tested in at least three independent experiments in duplicate or triplicate per plates. Data were normalized and fitted with standard log inhibitor vs. response models using GraphPad Prism 5 to establish median inhibitory ICso values.
A representative result using the monoclonal anti-human CD154 antibody (R&D Systems, monoclonal anti-human CD40 ligand/TNFSF5 antibody, MAB617; MW≈150 kDa used) as positive control is shown in FIG. 1.
Binding inhibition assays with this system provided consistent and well-reproducible results, as FIG. 1 (bottom), focusing on the concentration range of their activities, illustrates. […] The effect of DMSO, which was used as the diluting solvent for the non-water-soluble compounds and is a standard solvent in HTS assays, on the integrity of the assay has been examined. DMSO concentrations above 10% interfere with the binding assay, but concentrations below 3% have no effect. […] Because 5 or 10 mM stock solutions were used, all IC50 values below 250 μM can be considered as unaffected by DMSO.

human TNF-R1/TNFα [1] = target: human TNF-R1/TNFα (Homo sapiens, UniProt P01375+P19438); experiment: Specificity test: human TNF-R1/TNFα binding inhibition assay; details: for IC50: cell-free binding, read-out: Human TNFR1/TNFα IC50; for Human TNFR1/TNFα log IC50: log of IC50, cell-free binding
Description: (§1) A main concern for the therapeutic applicability of these compounds and of small molecule PPI inhibitors in general is related to their ability to achieve some acceptable degree of selectivity/specificity for the PPI of interest. To identify compounds that show acceptable specificity for the CD40/CD154 system, their ability to inhibit the TNF-R1/TNF-α PPI was investigated since this is particularly relevant as CD154 is part of the TNF superfamily. The experimental setup used was very similar to the one described in Example 1, but using plate-coated TNF-R1 and TNF-α as ligand (with a corresponding anti-TNF-α mAb as positive control). The concentration of TNF-R1 and TNF-α used were 0.6 μg/mL and 0.02 μg/mL, respectively.

[2] = target: T2, mouse CD40/CD154 (mCD40:mCD154) (Mus musculus, UniProt P27548); experiment: Murine CD40/CD154 binding inhibition assay
T2 construct: (FLAG-tagged) mCD154 (recombinant mouse CD40L, soluble, Alexis Biochemicals); purchased R&D Systems (mCD40/Fc); Alexis Biochemicals (mCD154)
T2 sequence (P27548 112-260 limits assumed): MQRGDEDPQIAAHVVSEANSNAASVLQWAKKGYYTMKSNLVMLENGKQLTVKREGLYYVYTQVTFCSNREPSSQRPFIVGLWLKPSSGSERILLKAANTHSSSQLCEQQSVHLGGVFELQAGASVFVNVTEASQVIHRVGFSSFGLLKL
Method: Compounds of interest were also tested in a murine (mouse) model similar to the human one with murine CD40 and CD154 replacing the corresponding human proteins. This serves as additional confirmation of the in vitro inhibitory potential of these compounds, and it was considered important because mouse models are likely to be used as the first in vivo tests. […] The experimental setup used was similar to the one described above, but using mCD40 (recombinant mouse CD40/TNFRSF5/Fc Chimera, soluble, R&D Systems) and (FLAG-tagged) mCD154 (recombinant mouse CD40L, soluble, Alexis Biochemicals). This time, however, a higher concentration of CD154 ligand had to be employed to obtain adequate signals, and after a number of calibration tests, mCD40 coating at 0.3125 μg/mL with mCD154 (mCD40L) at 1.1212 μg/mL range was selected to be used to screen the inhibiting activity of various compounds.
The experiments confirmed that the murine anti-CD154 monoclonal antibody (Taconic, MR1) was active in this system at the expected concentration (˜1 nM range), the human antibody was not, and vice versa, the human mAb was active in the human system, but not in the mouse system. The mouse system provided a similar range of activity with some (up to approximately five-fold) changes in activities compared to that seen in the human system (FIG. 2) (Table 1).

CD40 = target: T3, CD40 (Homo sapiens, UniProt P25942); experiment: Identification of binding partner: binding to CD40 (pre-incubation, wash-out); details: compound incubated 1 h with CD40, washed, then CD154 added
T3 construct: purchased Alexis Biochemicals
Description: It is also of interest to identify whether the compounds bind to the receptor CD40 or its ligand CD154 (CD40L). The main goal is to block the CD40/CD154 costimulatory interaction to achieve altered immune response and long-term tolerance; however, it seems more desirable to achieve this by targeting CD154, which is expressed mainly on activated T cells, since this way a more specific immune suppression could be achieved then by targeting CD40. To evaluate the binding partner of the test compounds, CD40 or CD154 were incubated for one hour with increasing concentrations of the test compounds, and after a wash, their ability to still bind their corresponding protein binding partner (CD154 or CD40, respectively) was assessed using a setup similar to that described before (Example 1).
To test if compounds bind specifically to CD40, the procedure of Example 1 was followed with a modification. After blocking the plates with blocking solution and washing, 100 μL of different dilutions of the compounds were added to the wells and incubated at room temperature (RT) for 1 h to allow binding with CD40 in the absence of its CD154 ligand. The plates were then washed three times with washing solution. CD154 was then added and the amount bound was assessed as before.

human TNF-R1/TNFα [3] = experiment: Specificity test: human TNF-R1/TNFα binding inhibition assay
Description: as §1

[4] = read-out: Human CD40/CD154 IC50
[5] = cell-free binding, read-out: Mouse CD40/CD154 IC50

Chain of human TNF-R1/TNFα (Homo sapiens, UniProt P01375+P19438) (P01375 77-233 limits assumed): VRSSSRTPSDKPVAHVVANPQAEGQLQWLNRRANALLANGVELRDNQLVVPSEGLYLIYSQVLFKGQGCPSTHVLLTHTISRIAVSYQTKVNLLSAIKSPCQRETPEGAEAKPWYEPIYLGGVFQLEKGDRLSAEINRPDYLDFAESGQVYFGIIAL
Chain of human TNF-R1/TNFα (Homo sapiens, UniProt P01375+P19438) (P19438 30-211 limits assumed): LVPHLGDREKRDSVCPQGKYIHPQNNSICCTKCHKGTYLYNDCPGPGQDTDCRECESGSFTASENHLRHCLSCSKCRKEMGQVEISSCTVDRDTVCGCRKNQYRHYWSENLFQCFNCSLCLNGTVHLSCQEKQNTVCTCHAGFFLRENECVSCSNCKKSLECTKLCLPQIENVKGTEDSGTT
T3 sequence (P25942 21-193 limits assumed): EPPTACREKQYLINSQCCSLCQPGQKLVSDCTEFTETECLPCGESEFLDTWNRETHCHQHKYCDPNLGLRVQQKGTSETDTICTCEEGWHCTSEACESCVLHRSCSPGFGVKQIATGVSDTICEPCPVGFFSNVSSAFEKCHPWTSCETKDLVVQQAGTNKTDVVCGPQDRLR

Molecule | Human CD40/CD154 IC50 (human CD40/CD154) [µg/mL] | IC50 (human CD40/CD154; [4]) [µM] | Human CD40/CD154 log IC50 (human CD40/CD154) | IC50 (human TNF-R1/TNFα [1]) [µM] | Human TNFR1/TNFα log IC50 (human TNF-R1/TNFα [1]) | IC50 [2, 5] [µM] | Mouse CD40/CD154 log IC50 ([2]; log of IC50, cell-free binding) | IC50 (human CD40/CD154; read-out: Human CD40/CD154 IC50 (ug/mL) (converted)) [µM] | IC50 ([2]; log of IC50, cell-free binding, read-out: Mouse CD40/CD154 log IC50 (converted)) [µM] | Binding to CD40 (CD40) | Specificity (human TNF-R1/TNFα [3]) | Inhibitory activity for all interactions tested (human TNF-R1/TNFα [3]; all interactions tested (CD40/CD154, TNF-R1/TNF-α)) [µM]
Nc1ccc2cc(S(=O)(=O)[O-])cc(O)c2c1N=Nc1ccc(NC(=O)Nc2ccc(N=Nc3c(N)ccc4cc(S(=O)(=O)[O-])cc(O)c34)c(S(=O)(=O)[O-])c2)cc1S(=O)(=O)[O-].[Na+].[Na+].[Na+].[Na+] [Direct red 75 (chlorazol fast pink), direct red 75] | 4.9 | 4.8 | −5.32 | 322 | −3.49 | 7.4 | −5.13 | – | – | – | – | –
O=C(Nc1ccc2c(O)c(N=Nc3ccc(N=Nc4ccc(S(=O)(=O)[O-])cc4)cc3S(=O)(=O)[O-])c(S(=O)(=O)[O-])cc2c1)Nc1ccc2c(O)c(N=Nc3ccc(N=Nc4ccc(S(=O)(=O)[O-])cc4)cc3S(=O)(=O)[O-])c(S(=O)(=O)[O-])cc2c1.[Na+].[Na+].[Na+].[Na+].[Na+].[Na+] [Direct red 80, direct red 80] | 1.9 | 1.8 | −5.73 | 1430 | −2.85 | 5.9 | −5.23 | – | – | – | – | –
O=C(Nc1ccc2c(O)c(N=Nc3ccc(N=Nc4ccc(S(=O)(=O)[O-])cc4)cc3)c(S(=O)(=O)[O-])cc2c1)c1ccccc1.[Na+].[Na+] [Direct red 81, direct red 81] | 6.9 | 13.6 | −4.87 | > 1000 | >−3.0 | 33.8 | −4.47 | – | – | – | – | –
O.O=C([O-])c1ccccc1-c1c2cc(I)c(=O)c(I)c-2oc2c(I)c([O-])c(I)cc12.[Na+].[Na+] [Erythrosin B (FD&C red 3), Erythrosin B, reference compound] | 2.0 | 1.9 | −5.72 | 9 | −5.04 | 5.9 | −5.23 | – | – | ubiquitous binder | nonspecific promiscuous inhibitor | ~10

The next lines start with results.

Human CD40/CD154 IC50 (human CD40/CD154) [µg/mL] | IC50 (human CD40/CD154; [4]) [µM] | Human CD40/CD154 log IC50 (human CD40/CD154) | IC50 (human TNF-R1/TNFα [1]) [µM] | Human TNFR1/TNFα log IC50 (human TNF-R1/TNFα [1]) | IC50 [2, 5] [µM] | Mouse CD40/CD154 log IC50 ([2]; log of IC50, cell-free binding) | IC50 (human CD40/CD154; read-out: Human CD40/CD154 IC50 (ug/mL) (converted)) [µM] | IC50 ([2]; log of IC50, cell-free binding, read-out: Mouse CD40/CD154 log IC50 (converted)) [µM] | Molecule | Binding to CD40 (CD40) | Specificity (human TNF-R1/TNFα [3]) | Inhibitory activity for all interactions tested (human TNF-R1/TNFα [3]; all interactions tested (CD40/CD154, TNF-R1/TNF-α)) [µM]
– | 4.7 | – | 438 | – | 2.3 | – | 5.2 | 2.24 | O=C(Nc1ccc(C(=O)Nc2ccc(C(=O)Nc3ccc(S(=O)(=O)O)c4cc(S(=O)(=O)O)cc(S(=O)(=O)O)c34)cc2)cc1)Nc1ccc(C(=O)Nc2ccc(C(=O)Nc3ccc(S(=O)(=O)O)c4cc(S(=O)(=O)O)cc(S(=O)(=O)O)c34)cc2)cc1 [NF279] | – | – | –
5.7 | 14 | −4.86 | 2160 | −2.67 | 16.7 | −4.78 | – | – | direct fast red B | – | – | –
3.5 | 5.5 | −5.26 | 214 | −3.67 | 12.7 | −4.90 | – | – | direct red 13 | – | – | –
